These results are taken from US20040194155A1, “HBV mutations associated with reduced susceptibility to adefovir” (priority 2002, published 2004).

The subject of assay [1] is HBV. The assay can be described thus: Phase 3 clinical study GS-98-438, HBeAg negative chronic hepatitis B patients. In kind it is in vivo, human. The protocol: The median serum HBV DNA levels declined by 3.5 and 3.9 log10 copies/mL from baseline to week 48 in the ADV 10 mg dose groups in HBeAg positive (Study GS-98-437) and in HBeAg negative (Study GS-98-438) chronic hepatitis B patients, respectively.
Adefovir resistance surveillance was performed in a blinded manner in HBeAg negative chronic hepatitis B patients treated for 96 weeks in a Phase 3 double-blind, randomized, placebo-controlled clinical study (GS-98-438) of adefovir dipivoxil 10 mg (ADV). The analysis included 79 patients who received ADV 10 mg daily for the first 48 weeks and were randomized to also receive ADV 10 mg during the second 48 weeks.
The reverse transcriptase (RT) domain of the HBV polymerase gene (rt1 to rt344) was sequenced for HBV DNA extracted from baseline and week 96 serum samples (or the last on-study sample) for the 79 patients treated continuously with ADV for 96 weeks if the samples had detectable serum HBV DNA (≧1000 copies/mL by Roche Amplicor™ PCR assay) at the time points tested.
Study GS-98-438 is a randomized, double-blind, placebo-controlled Phase 3 clinical study of the safety and efficacy of ADV for the treatment of patients with HBeAg negative/anti-HBe positive/HBV DNA positive chronic hepatitis B. A total of 184 patients received at least one dose of study medication during the first 48 weeks (n=61 and 123 for the placebo and ADV 10 mg groups, respectively). During the second 48 weeks, all placebo patients switched to ADV 10 mg daily while the ADV-treated patients were re-randomized to either continue ADV or receive placebo at a 2:1 ratio. Accordingly, all patients who received at least one dose of study drug during the second 48 weeks are classified into three groups: PLB-ADV (n=60), ADV-ADV (n=79), and ADV-PLB (n=40).
A virology substudy of Study GS-98-438 included all patients in the ADV 10 mg-ADV 10 mg group (n=79). The RT domain of the HBV polymerase gene from banked serum samples from these patients was genotypically analyzed at baseline, and either at week 96, or upon early termination during the second 48 weeks.
If the week 96 serum HBV DNA value was not available for a patient, the closest serum HBV DNA value prior to week 96 was used. All week 96 and the last on-drug samples are referred to as week 96 samples hereafter. Note that Roche Molecular Systems raised the lower limit of quantification of the HBV DNA PCR assay from 400 copies/mL to 1,000 copies/mL after Gilead completed the week 48 analyses for study 438.

The subject of assay [2] is wild-type HBV (patient-derived baseline clones). The assay can be described thus: Whole HBV genome cell culture assay: patient-derived HBV clones transiently transfected into HepG2 cells, 7 days drug, Southern blot of intracellular replicating virus DNA. Conditions: adefovir, patient-derived HBV (0454-2506), reference. In kind it is cell-based, hepatitis B virus.
The test system of assay [3] is rtN236T mutant HBV (patient-derived clones). The assay can be described thus: Whole HBV genome cell culture assay (HepG2 transient transfection), rtN236T clones. In kind it is cell-based, hepatitis B virus. The settings on record: for IC50 Fold Change (rtN236T/Wild-type): patient-derived HBV strain, rtN236T vs wild-type (Table 7); for susceptibility of rtN236T mutant (in words): in vitro.

The test system of assay [4] is rtN236T + rtA181T double mutant HBV. The assay can be described thus: Whole HBV genome cell culture assay, rtA181T introduced by site-directed mutagenesis into rtN236T clones of patient 0454-2506. In kind it is cell-based, hepatitis B virus. The settings on record: adefovir, patient-derived HBV (0454-2506). The source says:
(§1) One patient (0454-2506) with the rtN236T mutation also developed a second conserved site mutation rtA181T at week 96. However, all week 96 isolates derived from the patient encoding both rtN236T and rtA181T were replication deficient in vitro; the reason for this is unclear. To assess the adefovir sensitivity of HBV containing both rtN236T and rtA181Tmutations, an artificial construct was obtained by modifying an existing patient-derived HBV clone. The rtA181T mutation was introduced by site-directed mutagenesis into replicating HBV clones from patient 0454-2506 that already encoded rtN236T. The resulting double mutants were replication competent and were used for adefovir susceptibility testing. […] The rtA181T mutation was also introduced into a standard HBV lab strain (genotyped, ayw) to assess the individual contribution of the rtA181T mutation.

Assay [5] concerns Lab HBV strain, rtA181T mutant. Put plainly: In vitro adefovir susceptibility of HBV lab strain with introduced rtA181T. In kind it is cell-based, hepatitis B virus.
From the text: as §1

The subject of assay [6] is rtK241E + rtK318Q mutant HBV (patient-derived clones). Put plainly: Whole HBV genome cell culture assay (HepG2 transient transfection), rtK241E + rtK318Q clones. Conditions: in vitro, patient 0370-3503.
Method: All conserved site substitutions were evaluated for their effects on adefovir susceptibility using a novel approach to generate full-length patient-derived HBV clones. […] Full-length viral genomes were cloned into the lethal selection vector pCAP^s at a Mlu Nl site through blunt-end ligation (PCR Cloning Kit, Roche) and then subcloned into plasmid pHY106, a pBluescript KS (+)-derived plasmid containing a CMV promoter and the minimal 5′ and 3′ HBV sequence necessary (approximately 180 total bases) for viral replication after the insertion of a genome-length clinical HBV isolate. Drug susceptibility of patient-derived clones was analyzed by transient transfection into HepG2 cells.
To investigate if these conserved site mutations conferred resistance to adefovir, adefovir susceptibility of HBV isolates derived from the above five patients was evaluated using a whole HBV genome cell culture assay as described above.

“Also recorded” adds a separate entry of the source.

For the compound `CC(C)(C)C(=O)OCOP(=O)(COCCn1cnc2c(N)ncnc21)OCOC(=O)C(C)(C)C` [ADV, adefovir dipivoxil], in assay [1] (of 79 patients on ADV 10 mg for 96 weeks, Roche Amplicor PCR), the “number of patients with HBV DNA < 1000 copies/mL at week 96” value turned out to be 58.
Take `Nc1ncnc2c1ncn2CCOCP(=O)(O)O` [Adefovir, adefovir]: the “IC50 Fold Change from Wild-Type” value in assay [2] is given as 1 fold; in assay [4], 2.5 fold. The “IC50 Fold Change (rtN236T/Wild-type)” value in assay [3] is given as 9.6 fold. Moreover, the “resistance conferred by rtA181T mutation (in words)” value in assay [5] is on record as “did not confer resistance; also recorded: does not confer resistance”. The “reduction in serum HBV DNA” value in assay [1] (patient 0370-3503 (rtK241E + rtK318Q), week 96) is > 5 log10. Further, the “serum HBV DNA” value in assay [1] (patient 0370-3503, week 96) is 3.1 log10 copies/mL; in assay [1] (patient 0370-3503, week 156 (February of 2003)), 3.6 log10 copies/mL. Further, in assay [6], the “susceptibility of rtK241E + rtK318Q double mutant (in words)” value was “not associated with resistance; also recorded: remained fully susceptible”.
Take `C=C1[C@H](CO)[C@@H](O)C[C@@H]1n1cnc2c(=O)[nH]c(N)nc21` [Entecavir, entecavir]: in assay [3], the “susceptibility of rtN236T mutant (in words)” value is on record as “remained susceptible” and the “IC50 Fold Change (rtN236T/Wild-type)” value was 0.67 fold.
Regarding `Cc1cn([C@@H]2C[C@@H](O)[C@H](CO)O2)c(=O)[nH]c1=O` [L-dT], in assay [3], the “susceptibility of rtN236T mutant (in words)” value was “remained susceptible” and the “IC50 Fold Change (rtN236T/Wild-type)” value is recorded as 2.4 fold.
Consider `COc1ccc(Sc2nc(N)nc3c2ncn3CCOCP(=O)(OCC(F)(F)F)OCC(F)(F)F)cc1` [MCC-478], for which, in assay [3], the “IC50 Fold Change (rtN236T/Wild-type)” value is reported as 8.6 fold.
Still for that read-out and setting: the figure for `C[C@H](Cn1cnc2c(N)ncnc21)OCP(=O)(O)O` [Tenofovir, tenofovir] is 4.2 fold.
